≈ marks a conversion by molar mass, not a printed value.
Legend:
[1] = test system: Enterococcus faecalis (ATCC 29212); test: broth microdilution MIC (CLSI M07-A9), resazurin; assay type: cell-based; conditions: ATCC29212, 24 h
Protocol: (§1) Microbiological studies were performed according to following guides: CLSI reference […]-A9 broth microdilution method[49] for bacterial strains and EUCAST definitive (EDef 7.1) method[50] for Candida species. Synthesized compounds were tested for their in vitro growth inhibitory activity against Staphylococcus aureus (ATCC 25923), Enterococcus faecalis (ATCC 29212), Listeria monocytogenes (ATCC 1911), Klebsiella pneumoniae (NCTC 9633), Escherichia coli (ATCC 35218), E. coli (ATCC 25922) Candida albicans (ATCC 24433) Candida krusei (ATCC 6258) and Candida parapsilosis (ATCC 22019). Chloramphenicol and ketoconazole were used as control drugs. The cultures were obtained from the Mueller-Hinton broth (Difco) for the bacterial strains after overnight incubation at 37 °C. The yeasts were maintained in Roswell Park Memorial Institute (RPMI) after overnight incubation at 37 °C. […] Testing was carried out in Mueller-Hinton broth and RPMI at pH =7, and the two-fold serial dilutions technique was applied. The last well on the microplates containing only inoculated broth was kept as controls and the last well with no growth of microorganism was recorded to represent the minimum inhibitory concentration (MIC) expressed in μg/mL. For both the antibacterial and antifungal assays, the compounds were dissolved in DMSO. […] The completed plates were incubated for 24 h. At the end of the incubation, resazurin (20 μg/mL) was added into each well and plates were incubated for 2 h. MIC values were determined using a microplate reader at […]. Synthesized compounds (6a-6m) were evaluated for antimicrobial activity against various microorganisms such as Staphylococcus aureus (ATCC 25923), Enterococcus faecalis (ATCC 29212), Listeria monocytogenes (ATCC 1911), Klebsiella pneumoniae (NCTC 9633), Escherichia coli (ATCC 35218), E. coli (ATCC 25922)Candida albicans (ATCC 24433) Candida krusei (ATCC 6258) and Candida parapsilosis (ATCC 22019). […] Chloramphenicol and ketoconazole were used as standard drugs in the activity test. […] Besides, the compounds 6d, 6h, 6l and 6m indicated stronger antibacterial activity than the other compounds in the series.

[2] = test system: Escherichia coli (ATCC 25922); test: broth microdilution MIC (CLSI M07-A9), resazurin; assay type: cell-based; conditions: ATCC25922, 24 h, read-out: MIC Ec-2
Protocol: as §1

[3] = test system: Escherichia coli (ATCC 35218); test: broth microdilution MIC (CLSI M07-A9), resazurin; assay type: cell-based; conditions: for MIC: ATCC35218, 24 h, read-out: MIC Ec-1
Protocol: as §1

[4] = test system: Klebsiella pneumoniae (NCTC 9633); test: broth microdilution MIC (CLSI M07-A9), resazurin; assay type: cell-based; conditions: 24 h
Protocol: as §1

[5] = test system: Listeria monocytogenes (ATCC 1911); test: broth microdilution MIC (CLSI M07-A9), resazurin; assay type: cell-based; conditions: ATCC1911, 24 h
Protocol: as §1

[6] = test system: Staphylococcus aureus (ATCC 25923); test: broth microdilution MIC (CLSI M07-A9), resazurin; assay type: cell-based; conditions: ATCC25923, 24 h
Protocol: as §1

[7] = biological target: T1, COX-1 (Ovis aries, UniProt P05979); test: fluorometric COX-1 inhibitor screening kit assay; assay type: biochemical; conditions: for SI (selectivity index): IC50 (COX-1)/IC50 (COX-2); for IC50: fluorometric kit, 25 °C; for Selectivity: isoform preferred according to SI
T1 construct: purchased Biovision K548-100
T1 sequence (P05979 25-600): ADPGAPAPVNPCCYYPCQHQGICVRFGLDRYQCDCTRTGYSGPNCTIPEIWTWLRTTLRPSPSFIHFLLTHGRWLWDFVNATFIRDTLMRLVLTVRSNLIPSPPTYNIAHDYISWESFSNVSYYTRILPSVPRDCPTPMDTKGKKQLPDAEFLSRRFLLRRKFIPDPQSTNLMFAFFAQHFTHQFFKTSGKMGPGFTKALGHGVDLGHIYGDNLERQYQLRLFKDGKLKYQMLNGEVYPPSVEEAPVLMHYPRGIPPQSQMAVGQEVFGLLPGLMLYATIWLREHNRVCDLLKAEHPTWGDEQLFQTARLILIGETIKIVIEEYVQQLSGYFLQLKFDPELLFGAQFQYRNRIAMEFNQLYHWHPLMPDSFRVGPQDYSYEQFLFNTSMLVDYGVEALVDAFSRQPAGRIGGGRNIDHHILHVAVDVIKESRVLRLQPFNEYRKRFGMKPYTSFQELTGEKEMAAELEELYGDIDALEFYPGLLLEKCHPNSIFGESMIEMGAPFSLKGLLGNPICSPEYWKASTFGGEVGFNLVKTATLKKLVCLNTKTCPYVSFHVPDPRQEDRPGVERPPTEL
Protocol: (§2) Inhibitory potency of the compounds against COX-1 and COX-2 enzymes was determined using fluorometric COX-1 and COX-2 inhibitor screening kits (Biovision, Zurich, Switzerland). Experimental protocol was followed as described in the guides of the supplier[47]^,[48]. All of the pipettings in the assay were performed by Biotek Precision robotic system (BioTek Instruments, Inc., Winooski, VT). […] Appropriate two points (T1 and T2) in the linear range of the plot were chosen, and the corresponding fluorescence values (RFU1 and RFU2) were obtained. The slope for all samples, including enzyme control (EC), by dividing the net ΔRFU (RFU2–RFU1) values by the time ΔT (T2–T1) were calculated by using following equation: % Relative inhibition=(Slope of EC-Slope of S/Slope of EC)×100
(§3) This initial in vitro assay was done with two concentrations (10^−3 and 10^−4 M) for all compounds. […] The IC50 value was calculated from the plots of enzyme activity against concentrations by applying regression analyses on GraphPad Prism Version 5 (GraphPad Software, La Jolla, CA).
(§4) Selectivity indexes (SI) were expressed as IC50 (COX-1)/IC50 (COX-2). Selectivity toward COX-2 decreases as the corresponding SI decreases while selectivity toward COX-1 isoform increases as the corresponding SI decreases.

[8] = biological target: T2, COX-2 (Homo sapiens, UniProt P35354); test: fluorometric COX-2 inhibitor screening kit assay; assay type: biochemical; conditions: 25 °C
T2 construct: purchased Biovision K547-100
T2 sequence (P35354 18-604): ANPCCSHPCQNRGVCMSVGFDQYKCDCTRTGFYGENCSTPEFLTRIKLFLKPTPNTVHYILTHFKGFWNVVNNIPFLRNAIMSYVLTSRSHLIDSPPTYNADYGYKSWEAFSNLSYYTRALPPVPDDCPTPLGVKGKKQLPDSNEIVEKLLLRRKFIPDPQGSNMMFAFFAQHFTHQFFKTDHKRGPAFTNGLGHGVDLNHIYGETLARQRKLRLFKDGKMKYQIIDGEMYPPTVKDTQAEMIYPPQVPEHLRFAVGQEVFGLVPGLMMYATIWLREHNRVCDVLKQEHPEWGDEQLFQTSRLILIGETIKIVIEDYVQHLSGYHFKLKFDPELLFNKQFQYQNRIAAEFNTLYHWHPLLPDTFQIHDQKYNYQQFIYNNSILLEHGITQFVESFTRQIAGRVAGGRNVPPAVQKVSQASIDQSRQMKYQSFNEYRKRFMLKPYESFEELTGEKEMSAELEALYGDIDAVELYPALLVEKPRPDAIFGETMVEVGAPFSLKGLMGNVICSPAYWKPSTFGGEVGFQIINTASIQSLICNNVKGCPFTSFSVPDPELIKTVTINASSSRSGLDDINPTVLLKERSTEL
Protocol: as §2, §3, §4

[9] = test system: Candida albicans (ATCC 24433); test: broth dilution MIC (EUCAST EDef 7.1), resazurin; assay type: cell-based; conditions: ATCC24433, 24 h
Protocol: as §1

[10] = test system: Candida krusei (ATCC 6258); test: broth dilution MIC (EUCAST EDef 7.1), resazurin; assay type: cell-based; conditions: Pichia kudriavzevii, ATCC6258, 24 h
Protocol: as §1

[11] = test system: Candida parapsilosis (ATCC 22019); test: broth dilution MIC (EUCAST EDef 7.1), resazurin; assay type: cell-based; conditions: ATCC22019, 24 h
Protocol: as §1

SMILES | MIC [1] [µg/mL] | MIC [2] [µg/mL] | MIC Ec-1 ([3]; 24 h) [µg/mL] | MIC [3] [µg/mL] | MIC Kp [4] [µg/mL] | MIC [5] [µg/mL] | MIC [6] [µg/mL] | SI (selectivity index) [7] | IC50 [7] [µM] | Selectivity [7] | IC50 [8] [µM] | MIC [9] [µg/mL] | MIC [10] [µg/mL] | MIC [11] [µg/mL]
O=C(N[C@H](CO)[C@H](O)c1ccc([N+](=O)[O-])cc1)C(Cl)Cl [Chloramphenicol, reference compound] | 6.25 (≈ 19.3 µM) | 6.25 (≈ 19.3 µM) | 6.25 (≈ 19.3 µM) | 6.25 (≈ 19.3 µM) | 12.5 (≈ 38.7 µM) | 12.5 (≈ 38.7 µM) | 6.25 (≈ 19.3 µM) | – | – | – | – | – | – | –
CC(=O)N1CCN(c2ccc(OCC3COC(Cn4ccnc4)(c4ccc(Cl)cc4Cl)O3)cc2)CC1 (stereo not shown) [Ketoconazole, reference compound] | – | – | – | – | – | – | – | – | – | – | – | 0.78 (≈ 1.47 µM) | 0.78 (≈ 1.47 µM) | 0.78 (≈ 1.47 µM)

Now from value to compound:

MIC [1] [µg/mL] | MIC [2] [µg/mL] | MIC Ec-1 ([3]; 24 h) [µg/mL] | MIC [3] [µg/mL] | MIC Kp [4] [µg/mL] | MIC [5] [µg/mL] | MIC [6] [µg/mL] | SI (selectivity index) [7] | IC50 [7] [µM] | Selectivity [7] | IC50 [8] [µM] | MIC [9] [µg/mL] | MIC [10] [µg/mL] | MIC [11] [µg/mL] | SMILES
12.5 (≈ 45.2 µM) | 12.5 (≈ 45.2 µM) | – | 6.25 (≈ 22.6 µM) | 6.25 (≈ 22.6 µM) | 12.5 (≈ 45.2 µM) | 12.5 (≈ 45.2 µM) | 0.60 | 28.6 | COX-1 | 47.4 | 100 (≈ 362 µM) | 100 (≈ 362 µM) | 50 (≈ 181 µM) | CC(C(=O)O)c1ccc(CSc2nccn2C)cc1 (stereo not shown) [Compound 6b, 2-(4-(((1-Methyl-1H-imidazol-2-yl)thio)methyl)phenyl)propanoic acid]
12.5 (≈ 47.5 µM) | 12.5 (≈ 47.5 µM) | – | 6.25 (≈ 23.7 µM) | 12.5 (≈ 47.5 µM) | 12.5 (≈ 47.5 µM) | 12.5 (≈ 47.5 µM) | 0.53 | 19.5 | COX-1 | 36.7 | 100 (≈ 380 µM) | 50 (≈ 190 µM) | 50 (≈ 190 µM) | CC(C(=O)O)c1ccc(CSc2nc[nH]n2)cc1 (stereo not shown) [Compound 6c, 2-(4-(((1H-1,2,4-Triazol-3-yl)thio)methyl)phenyl)propanoic acid]
6.25 (≈ 22.5 µM) | 12.5 (≈ 45.1 µM) | – | 6.25 (≈ 22.5 µM) | 6.25 (≈ 22.5 µM) | 12.5 (≈ 45.1 µM) | 12.5 (≈ 45.1 µM) | 0.62 | 24.6 | COX-1 | 39.9 | 50 (≈ 180 µM) | 50 (≈ 180 µM) | 50 (≈ 180 µM) | CC(C(=O)O)c1ccc(CSc2nncn2C)cc1 (stereo not shown) [Compound 6d, 2-(4-(((4-Methyl-4 H-1,2,4-triazol-3-yl)thio)methyl)phenyl)propanoic acid]

From publication PMC6445163, “Design, synthesis, and evaluation of novel 2-phenylpropionic acid derivatives as dual COX inhibitory-antibacterial agents” (Journal of Enzyme Inhibition and Medicinal Chemistry, 2017)
